According to patent US11331369B2, “Endoparasitic depsipeptides” (Zoetis Services LLC, priority 2017, dated 2022):
Where two headings read alike, the source gives them in different places.

Key:
[1] = tested on: microfilariae of Dirofilaria immitis; test: Dirofilaria immitis, Microfilaria (DiMF) In vitro Assay; assay type: cell-based; conditions: 72 h, read-out: DiMF Minimum Effective Dose (MED), approximately 72 hours incubation, microfilariae assessed for survival or paralysis
[2] = Canine pharmacokinetic (PK) study, single IV or oral dose; conditions: dog; for Vd / clearance / half-life / Cmax: in vivo; for Vd / clearance / half-life: iv, 0.2 mg/kg; for Cmax: po, 1 mg/kg; for F: oral 1 mg/kg
[3] = tested on: circulating microfilariae (Dirofilaria immitis); test: Heartworm Positive Dog Studies (effects on circulating microfilariae, clinical observations); conditions: for Mean MF/mL, Day 0 Pre-dose / Mean MF/mL, Day 0 Post-dose, 2 hours / Mean MF/mL, Day 1 / Mean MF/mL, Day 7 / Mean MF/mL, Day 14 / Mean MF/mL, Day 21: blood, 3 dogs/treatment; for Mean MF/mL, Day 0 Pre-dose: baseline before oral dose; for Mean MF/mL, Day 0 Post-dose, 2 hours / Mean MF/mL, Day 1 / Mean MF/mL, Day 7 / Mean MF/mL, Day 14 / Mean MF/mL, Day 21: oral dose (emodepside and 1b-14 1 mg/kg, 1b-25 up to 3 mg/kg); for Mean MF/mL, Day 0 Post-dose, 2 hours / % Reduction of circulating microfilariae, Day 0 Post-dose, 2 hours: 2 hours post-dose; for % Reduction of circulating microfilariae, Day 0 Post-dose, 2 hours / % Reduction of circulating microfilariae, Day 1 / % Reduction of circulating microfilariae, Day 7 / % Reduction of circulating microfilariae, Day 14 / % Reduction of circulating microfilariae, Day 21: vs pre-dose (Day 0) counts, oral dose
[4] = tested on: 4th stage larvae (L4) of Dirofilaria immitis; test: Dirofilaria immitis, L4 Stage (DiL4) In Vitro Assay; assay type: cell-based; conditions: for minimal effective concentration: Dirofilaria immitis, 72 h, read-out: DiL4 Minimum Effective Dose (MED), approximately 72 hours incubation, L4 larvae assessed for survival or paralysis
[5] = tested on: third stage larvae of Haemonchus contortus; test: Haemonchus contortus L3 (HcL3) Assay; assay type: cell-based; conditions: 96 h, read-out: HcL3 Minimum Effective Dose (MED)
[6] = tested on: circulating microfilariae (Dirofilaria immitis); conditions: dog, in vivo, po, 1 mg/kg

Row | SMILES | minimal effective concentration [1] [µM] | Vd [2] [L/kg] | clearance [2] [L/h/kg] | half-life [2] [h] | Cmax [2] [µg/mL] | F [2] [%] | Mean MF/mL, Day 0 Pre-dose ([3]; heartworm positive dogs) | Mean MF/mL, Day 0 Post-dose, 2 hours ([3]; heartworm positive dogs) | Mean MF/mL, Day 1 ([3]; heartworm positive dogs) | Mean MF/mL, Day 7 ([3]; heartworm positive dogs) | Mean MF/mL, Day 14 ([3]; heartworm positive dogs) | Mean MF/mL, Day 21 ([3]; heartworm positive dogs) | % Reduction of circulating microfilariae, Day 0 Post-dose, 2 hours [3] [%] | % Reduction of circulating microfilariae, Day 1 [3] [%] | % Reduction of circulating microfilariae, Day 7 [3] [%] | % Reduction of circulating microfilariae, Day 14 [3] [%] | % Reduction of circulating microfilariae, Day 21 [3] [%] | minimal effective concentration [5] [µM] | minimal effective concentration [4] [µM] | further results
1 | CC(C)C[C@H]1C(=O)O[C@H](Cc2ccc(Cn3nc(C4CC4)cc3C3CC3)cc2)C(=O)N(C)[C@@H](CC(C)C)C(=O)O[C@H](C)C(=O)N(C)[C@@H](CC(C)C)C(=O)O[C@H](Cc2ccc(Cn3nc(C4CC4)cc3C3CC3)cc2)C(=O)N(C)[C@@H](CC(C)C)C(=O)O[C@H](C)C(=O)N1C [Example 1b-14, (3S,6R,9S,12R,15S,18R,21S,24R)-6,18-bis({4-[(3,5-dicyclopropyl-1H-pyrazol-1-yl)methyl]phenyl}methyl)-4,10,12,16,22,24-hexamethyl-3,9,15,21-tetrakis(2-methylpropyl)-1,7,13,19-tetraoxa-4,10,16,22-tetraazacyclotetracosan-2,5,8,11,14,17,20,23-octaone] | 0.3 | 2.7 | 0.054 | 138 | 0.111 | 10 | 15,000 MF/mL | 20,000 MF/mL | 14,000 MF/mL | 15,000 MF/mL | 33,000 MF/mL | 28,000 MF/mL | −33 | 7 | 0 | −120 | −87 | – | – | adverse effects / clinical observations ([3]; heartworm positive dogs, 1 mg/kg (po)): no adverse clinical observations noted; average MF counts on day 21 ([3]; heartworm positive dogs, 1 mg/kg (po), 15,000 MF/mL of blood pre-dose): 28,000 MF/mL of blood; effects on circulating MF counts ([3]; heartworm positive dogs, 1 mg/kg (po), throughout the dog study): no significant effects on circulating MF counts
2 | CC(C)C[C@H]1C(=O)O[C@H](Cc2ccc(Cn3cc(Br)cn3)cc2)C(=O)N(C)[C@@H](CC(C)C)C(=O)O[C@H](C)C(=O)N(C)[C@@H](CC(C)C)C(=O)O[C@H](Cc2ccc(Cn3cc(Br)cn3)cc2)C(=O)N(C)[C@@H](CC(C)C)C(=O)O[C@H](C)C(=O)N1C [Example 1b-25, (3S,6R,9S,12R,15S,18R,21S,24R)-6,18-bis[[4-[(4-bromopyrazol-1-yl)methyl]phenyl]methyl]-3,9,15,21-tetraisobutyl-4,10,12,16,22,24-hexamethyl-1,7,13,19-tetraoxa-4,10,16,22-tetrazacyclotetracosane-2,5,8,11,14,17,20,23-octaone] | – | 3 | 0.12 | 110 | 0.152 | 12 | 32,000 MF/mL | 34,000 MF/mL | 26,000 MF/mL | 27,000 MF/mL | 40,000 MF/mL | 46,000 MF/mL | −6 | 19 | 16 | −25 | −44 | 10 to 100 | – | selectivity ratio (DiMF/DiL4) ([4]; ratio of DiMF MED to DiL4 MED): about 8.3; adverse effects / clinical observations ([3]; heartworm positive dogs, dosed up to 3 mg/kg (po)): no adverse effects observed; effects on circulating MF counts ([3]; heartworm positive dogs, dosed up to 3 mg/kg (po), out to day 21 post-dose): no significant effects on circulating MF counts
3 | CC(C)C[C@H]1C(=O)O[C@H](Cc2ccc(N3CCOCC3)cc2)C(=O)N(C)[C@@H](CC(C)C)C(=O)O[C@H](C)C(=O)N(C)[C@@H](CC(C)C)C(=O)O[C@H](Cc2ccc(N3CCOCC3)cc2)C(=O)N(C)[C@@H](CC(C)C)C(=O)O[C@H](C)C(=O)N1C [emodepside, reference compound] | 0.03 | – | – | – | – | – | 61,000 MF/mL | 8,300 MF/mL | 4,500 MF/mL | 8,800 MF/mL | 13,000 MF/mL | 13,000 MF/mL | 86 | 93 | 86 | 79 | 79 | – | 0.03 | adverse effects / clinical observations [6]: all treated dogs exhibited adverse effects consistent with dead or dying circulating microfilariae; average MF counts at 2 hours post-dose ([3]; heartworm positive dogs, 1 mg/kg (po), 61,000 MF/mL of blood pre-dose): 8,300 MF/mL of blood; decrease of average MF counts at 2 hours post-dose ([3]; heartworm positive dogs, 1 mg/kg (po), versus pre-dose): ~86%
4 | CC(C)C[C@H]1C(=O)O[C@H](Cc2ccc(Cn3nccc3C3CC3)cc2)C(=O)N(C)[C@@H](CC(C)C)C(=O)O[C@H](C)C(=O)N(C)[C@@H](CC(C)C)C(=O)O[C@H](Cc2ccc(Cn3nccc3C3CC3)cc2)C(=O)N(C)[C@@H](CC(C)C)C(=O)O[C@H](C)C(=O)N1C [Example 1b-108, (3S,6R,9S,12R,15S,18R,21S,24R)-6,18-bis(4-((5-cyclopropyl-1H-pyrazol-1-yl)methyl)benzyl)-3,9,15,21-tetraisobutyl-4,10,12,16,22,24-hexamethyl-1,7,13,19-tetraoxa-4,10,16,22-tetraazacyclotetracosan-2,5,8,11,14,17,20,23-octaone] | 0.001 to 0.01 | 5.6 | 0.36 | 51 | 0.178 | 30 | – | – | – | – | – | – | – | – | – | – | – | ≤ 1 | 0.0001 to 0.001 | –
